Consider 1 sequence from patent publication US11850263B2, “Nanoparticles conjugated with vasoactive intestinal peptide antagonists” (Emory University, priority 2017, dated 2023).

“Also recorded” adds a separate entry of the source.

Experiment [1] concerns T-cells from the anergic lymphoma patient. Briefly: Culture of sorted lymphoma patient T-cells with anti-CD3/anti-CD28 beads (Ki67, PD-1 by flow cytometry). Type of experiment: cell-based, human. An excerpt: Using high-speed cell sorting subsets of T-cells were isolated defined by their levels of CD27 and CD28 expression from the patient with relapsed lymphoma and a healthy control. CD3 positive T-cells with each of the four phenotypes defined by CD27 and CD28 expression were sorted and cultured in vitro in the presence of anti-CD^3/anti-CD28 beads. Total T-cells from healthy donors had 100% expression of the Ki67 proliferation marker following four days of culture. However, the corresponding total T-cell population from the patient with anergic T-cells following treatment for lymphoma had only 90% of T-cells expressing the Ki67 marker.
Following the daily addition of 3 uM VIPhyb to these cultures, the proportion of Ki67 positive T-cells from the anergic lymphoma patient was increased to 100%. […] In contrast, the T-cell subsets lacking expression of either CD27 or CD28 or both markers had impaired proliferated response when incubated with the anti-CD3/CD28 beads.
Addition of the antagonist VIPhyb augmented T-cell proliferation in the subsets lacking either CD27 or CD28.

In experiment [2] the test system is effector/memory CD8+ T cells and mature NK cells. The settings on record: mouse leukemia models; cited from earlier work.
Another experiment has as its system DLBCL patient T cells. Briefly: DLBCL patient T cell expansion for 14 days with CD3/CD28 beads and IL-2. It is filed as cell-based, human.
The next experiment has as its system E.G7-OVA cells. Briefly: E.G7-OVA lymphoma model, adoptive transfer of T cells expanded with the compounds. Type of experiment: in vivo, Mice. The settings on record: OVA-expressing lymphoma model; T cells expanded 3 days with CD3/CD28 beads and IL-2, injected intravenously on day 7 of tumor growth. Here is the method: Mice were injected subcutaneously with 5×10^5 E.G7-OVA cells that were allowed to grow for 7 days until a palpable tumor formed. During this period, OT-I, OT-II, and B6 T cells were expanded with CD3/CD28 beads in the presence of IL-2 and the indicated compounds for 3 days. On day 7 of tumor growth, mice were injected intravenously with a combination of expanded OT-I, OT-II, and B6 T cells (2×10^6 OT-I, 1×10^6 OT-II, and 2×10^6 B6 cells) or 2×10^6 B6 T cells as a control. Mice were then monitored for tumor growth that was calculated as (L×W^2)/2. FIG. 5B is a tumor growth curve showing the rate of growth among groups over time. Expansion of mouse T cells in the presence of Idelalisib, VIPhyb, or a combination of both enhances their therapeutic efficacy in an OVA-expressing lymphoma model.

Experiment [3] concerns senescent T cells from a patient with lymphoma. Kind of experiment: 10 day in vitro culture of senescent lymphoma patient T cells with anti-CD3/CD28 beads, flow cytometric analysis. It is filed as cell-based, human. Here is the method:
Monocytes were depleted from the T cell sample, as monocytes are known to inhibit T cell expansion in cultures containing anti-CD3/CD28 beads. The effect of a range of idelalisib concentrations were compared alone and in combination with 3 uM VIP peptide antagonist (VIPhyb) or 1 ug/ml mast cell chymase, an enzyme that degrades endogenous VIP on T cell activation, differentiation and proliferation. Numbers of viable T cells were measured during a 10 day in vitro cultures as well as the T cell differentiation and activation profiles, focusing on the relative numbers of T cells with a senescent phenotype in which co-stimulatory receptors CD27 and CD28 are both absent (CD27−CD28−), to an activated phenotype, in which either CD27, CD28, or both co-stimulatory receptors are present (CD27+CD28+).
Aliquots of frozen patient apheresis products or PBMC from ficolled whole blood were rapidly thawed and rested overnight in complete RPMI 1640 supplemented with 10% fetal bovine serum, 100 U/mL penicillin, 100 μg/mL streptomycin, and 50 μM 2-mercaptoethanol (complete media). The following day, red blood cells were removed from apheresis products by ficoll gradient. The leukocytes were then enriched for T cells using an EasySep human T cell enrichment kit according to manufacturer's instructions. Cells were plated in 200 μL of complete media in each well of a 96 well flat-bottom plate. Compounds were added at the indicated concentrations, and the DMSO concentration was normalized to 0.1% for all wells. Anti-CD3/CD28 beads were added at a 1:1 bead:cell ratio. On day 7 post-stimulation, cells from each treatment were transferred to new media. Fresh compounds and beads were then added, and the cells were cultured for an additional 3 days. On day 10 post-initial stimulation, the beads were removed, and the cells were stained for flow cytometric analysis.
Cells were washed twice in PBS. The cells were also stained using a fixable viability dye. Surface markers were then stained by adding fluorochrome-conjugated antibodies to CD3, CD4, CD8, CD27, CD28, CD45RA, CD45RO, PD-1, and CCR7. To assess proliferation, half the cells were evaluated for expression of Ki67. Ki67 staining was performed using a FoxP3 intracellular staining kit. Just prior to running samples, Accucheck™ counting beads were added to each tube. Samples were acquired on a BD FACS Aria, and analysis was performed using FlowJo™ software. Viable cells were used in the analysis. The absolute numbers of cells was calculated for each population according to instructions provided by the manufacturer of the Accucheck™ counting beads.
(In general: In flow cytometry, cells or beads pass a laser one at a time.)

Experiment [4] relates to luciferase B6 splenic T cells. Kind of experiment: One-way mixed lymphocyte reaction (MLR), luciferase B6 splenic T cells with irradiated FVB splenocytes. Type of experiment: cell-based, mouse. How it is done:
Proliferation of luciferase B6 splenic T cells cultured for 3 days in MLR with irradiated FVB splenocytes, with daily addition of VIP and/or VIPhyb to achieve the concentrations shown (0-10 mmol/L).
To explore the role of VIP signaling in allo-immune responses, one-way mixed lymphocyte reactions (MLR) were performed containing VIP and/or the antagonistic VIPhyb peptide. Addition of VIP decreased Luciferase T-cell proliferation in a dose-dependent manner, while adding VIPhyb increased T-cell proliferation.

The next experiment has as its system Bcl-2. Briefly: Bcl-2 blot of protein lysates from patient T cell expansion cultures. It is filed as cell-based, human. The following applies: lysates on days 7 and 14; actin loading control. How it is done: Protein lysates from patient T cell expansion cultures were prepared on days 7 and 14. Samples were run on an SDS-PAGE gel prior to transfer to a nitrocellulose membrane. The membrane was then probed for the pro-survival Bcl-2 protein, stripped, and then re-probed for actin as a loading control.

The test system of a further experiment is PD-1 and PD-L1. The following applies: activated T cells and dendritic cells, respectively; cited from earlier work.
The subject of experiment [5] is luciferase-expressing splenic T cells from B6 Luciferase mice. Briefly: Bioluminescent MLR, B6 Luciferase splenic T cells with irradiated FVB splenic T cells (VIP, VIPhyb, VIPhyb-NP). Type of experiment: cell-based, mouse. An excerpt:
Splenocytes were extracted from WT and VIP-KO mice treated with B16-F0 and B16-F10 melanoma, and analyzed with flow cytometry for Granzyme B (GrZ B) and CD8 expression. VIPhyb was conjugated to a biocompatible, non-toxic 30 nm NP through emulsion polymerization and tested for purity and stability. A mixed lymphocyte reaction (MLR) using luciferase-expressing splenic T cells from B6 Luciferase mice were co-cultured with irradiated splenic T cells from FVB mice. VIP, VIPhyb, and VIPhyb-NP at concentrations of 0 ug/mL to 975 ug/mL were added to the MLR on 3 consecutive days and their effect on T cell proliferation assessed with bioluminescent imaging.

As to “KPRRPYTDNYTRLRKQMAVKKYLNSILN [VIPhyb, peptide antagonist of VIP]”, the “levels of PD-1 expression” value in [1] (3 uM VIPhyb, flow cytometry, compared with control cultures without VIP antagonist) is “decreased”. In addition, the “T-cell proliferation in the subsets lacking either CD27 or CD28” value in experiment [1] (addition of VIPhyb, anti-CD3/CD28 beads) was “augmented”. In addition, in [1] (daily addition of 3 uM VIPhyb, total T-cells of anergic lymphoma patient, anti-CD3/anti-CD28 beads, four days of culture, 90% without VIPhyb), the “proportion of Ki67 positive T-cells” value is recorded as 100%. Moreover, the “number of effector/memory CD8+ T cells and mature NK cells” value in experiment [2] is recorded as “increases”. Moreover, in the experiment on DLBCL patient T cells, the “frequency of CD27+CD28+ cells” value is reported as “increases” and the “frequency of CD27−CD28− cells” value is reported as “decreasing”. Besides, the “therapeutic efficacy of mouse T cells expanded in presence of the compounds” value in the experiment with E.G7-OVA cells was “enhances”. The “fraction of senescent T cells that lacked both CD27 and CD28” value in experiment [3] (3 uM VIPhyb, control 55.2%) is recorded as 35.7%. Also, the “numbers of effector memory T cells (Tem)” value in experiment [3] (10-day cultures) is reported as “increased”. Further, the “in vitro expansion of senescent T cells” value in experiment [3] (as single agent or in combination) is on record as “significantly expanded”. For the same sequence, the “T-cell proliferation in MLR” value in experiment [4] (3 days, daily addition of VIP and/or VIPhyb, 0-10 mmol/L [sic]) is given as “increased; also recorded: augmented”. Further, in [4] (VIP plus VIPhyb in MLR), the “effect on VIP suppression of T-cell proliferation” value is listed as “reversed the suppressive effect of VIP; also recorded: mitigated the inhibitory effect”. For the same sequence, the “expression of Bcl-2 in lymphoma patient T cells” value in the experiment with Bcl-2 is “increased”. In the experiment with PD-1 and PD-L1, the “expression of PD-1 and PD-L1” value was “down regulates”. Moreover, the “concentration of peak efficacy” value in [5] (T cell proliferation in MLR) worked out at 300 µg/mL. Also, the “effect on inhibitory effects of VIP on T cell proliferation in vitro” value in experiment [5] (added on 3 consecutive days, 0 ug/mL to 975 ug/mL) is “counteracted the inhibitory effects of VIP”.
